PubChem BioAssay AID330 (DTP/NCI, 2004)
Values joined by “and” are separate entries in the source; they are usually repeats but may differ in a detail not shown here. Identical values can stand only once. Inconclusive results and toxic doses are left out. Rule for the calls: active = survival T/C of 150% or more; inactive = T/C below 125% in these data.

System: P388 leukemia ip, CD2F1 mice, survival T/C
Assay: NCI In Vivo Anticancer Drug Screen. Data for tumor model P388 Leukemia (intraperitoneal) in CD2F1 (CDF1) mice
Conditions: endpoint: median survival time, higher = longer survival
Outline: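 Mice carrying the transplanted tumor received test compound or vehicle. Survival was recorded in each group, and the value is the treated-group measurement divided by that of the vehicle-treated control group.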

[1] = dose: 60.0 mg/kg/injection, schedule: Q01DX005 (ip), vehicle: Klucel (hydroxypropylcellulose) (HPC)
[2] = dose: 120.0 mg/kg/injection, schedule: Q01DX005 (ip), vehicle: Klucel (hydroxypropylcellulose) (HPC)
[3] = dose: 240.0 mg/kg/injection, schedule: Q01DX005 (ip), vehicle: Klucel (hydroxypropylcellulose) (HPC)
[4] = dose: 50.0 mg/kg/injection, schedule: Q01DX005 (ip), vehicle: saline
[5] = dose: 100.0 mg/kg/injection, schedule: Q01DX005 (ip), vehicle: saline
[6] = dose: 200.0 mg/kg/injection, schedule: Q01DX005 (ip), vehicle: saline
[7] = dose: 25.0 mg/kg/injection, schedule: Q01DX005 (ip), vehicle: saline with Tween-80
[8] = dose: 60.0 mg/kg/injection, schedule: Q01DX005 (ip), vehicle: saline with Tween-80
[9] = dose: 120.0 mg/kg/injection, schedule: Q01DX005 (ip), vehicle: saline with Tween-80
[10] = dose: 240.0 mg/kg/injection, schedule: Q01DX005 (ip), vehicle: saline with Tween-80
[11] = dose: 100.0 mg/kg/injection, schedule: Q04DX003 (ip), vehicle: saline
[12] = dose: 200.0 mg/kg/injection, schedule: Q04DX003 (ip), vehicle: saline
[13] = dose: 50.0 mg/kg/injection, schedule: Q01DX005 (ip), vehicle: saline with Tween-80
[14] = dose: 100.0 mg/kg/injection, schedule: Q01DX005 (ip), vehicle: saline with Tween-80
[15] = dose: 200.0 mg/kg/injection, schedule: Q01DX005 (ip), vehicle: saline with Tween-80

Measured: T/C

Cc1ccc2c(c1)sc1nc(C)cc(=O)n12
inactive: dose: 10.0 mg/kg/injection, schedule: Q04DX002 (ip), vehicle: Klucel (hydroxypropylcellulose) (HPC) 106 % of control | dose: 20.0 mg/kg/injection, schedule: Q04DX002 (ip), vehicle: Klucel (hydroxypropylcellulose) (HPC) 97 % of control | dose: 40.0 mg/kg/injection, schedule: Q04DX002 (ip), vehicle: Klucel (hydroxypropylcellulose) (HPC) 95 % of control

CCc1nc2c(Br)c3oc(CC)nc3c(C)c2o1
inactive: [1] 97 % of control | [2] 95 % of control | [3] 91 % of control

COC(=O)C1C(NC(C)(C)C)CCN1C(C)=O (centres undefined)
inactive: [4] 89 % of control | [5] 88 % of control | [6] 89 % of control

N#CC=Cc1ccc([N+](=O)[O-])s1 (mixture of isomers)
inactive: dose: 12.5 mg/kg/injection, schedule: Q01DX005 (ip), vehicle: saline with Tween-80 109 % of control | [7] 115 % of control

N#CCSc1nc(N)nc2nc[nH]c12
inactive: dose: 50.0 mg/kg/injection, schedule: Q01DX009 (ip), vehicle: saline sonified 95 % of control | dose: 50.0 mg/kg/injection, schedule: Q04DX003 (ip), vehicle: saline with Tween-80 95 % of control | dose: 100.0 mg/kg/injection, schedule: Q01DX009 (ip), vehicle: saline sonified 100 % of control | dose: 100.0 mg/kg/injection, schedule: Q04DX003 (ip), vehicle: saline with Tween-80 100 % of control | dose: 200.0 mg/kg/injection, schedule: Q01DX009 (ip), vehicle: saline sonified 95 % of control | dose: 200.0 mg/kg/injection, schedule: Q04DX003 (ip), vehicle: saline with Tween-80 95 % of control

CCCC12C=C(OC)C(=O)C(C1=O)C(c1ccc3c(c1)OCO3)C2C (centres undefined)
inactive: dose: 8.75 mg/kg/injection, schedule: Q01DX005 (ip), vehicle: Klucel (hydroxypropylcellulose) (HPC) 118 % of control | dose: 17.5 mg/kg/injection, schedule: Q01DX005 (ip), vehicle: Klucel (hydroxypropylcellulose) (HPC) 110 % of control | dose: 35.0 mg/kg/injection, schedule: Q01DX005 (ip), vehicle: Klucel (hydroxypropylcellulose) (HPC) 100 % of control

O=S(=O)(Nc1ccccc1C(F)(F)F)c1ccc(F)cc1
inactive: [8] 99 % of control | [9] 100 % of control | [10] 95 % of control

O=C(Cc1c[nH]c2ccccc12)Nc1nncs1
inactive: dose: 100.0 mg/kg/injection, schedule: Q04DX002 (ip), vehicle: saline with Tween-80 97 % of control | dose: 200.0 mg/kg/injection, schedule: Q04DX002 (ip), vehicle: saline with Tween-80 97 % of control | dose: 400.0 mg/kg/injection, schedule: Q04DX002 (ip), vehicle: saline with Tween-80 110 % of control

CCCCCCCCCC[N+]1([O-])CCCCC1
inactive: dose: 50.0 mg/kg/injection, schedule: Q01DX009 (ip), vehicle: saline 97 % of control

Cn1c2c(c3ccccc3c1=O)C(=O)c1cccnc1-2
inactive: [4] 102 % of control | [5] 97 % of control | [6] 105 % of control

COc1cc(Br)c(C(=O)Nc2ccc(O)cc2)cc1OC
inactive: dose: 25.0 mg/kg/injection, schedule: Q01DX009 (ip), vehicle: other 103 % of control and 107 % of control | dose: 50.0 mg/kg/injection, schedule: Q01DX009 (ip), vehicle: other 110 % of control | dose: 100.0 mg/kg/injection, schedule: Q01DX009 (ip), vehicle: other 106 % of control and 118 % of control | dose: 200.0 mg/kg/injection, schedule: Q01DX009 (ip), vehicle: other 106 % of control and 117 % of control | dose: 400.0 mg/kg/injection, schedule: Q01DX009 (ip), vehicle: other 106 % of control

CC1C(c2ccccc2)OC2N1CN(C(C)(C)C)CC2(C)C (centres undefined)
inactive: dose: 50.0 mg/kg/injection, schedule: Q01DX009 (ip), vehicle: saline with Tween-80 100 % of control | dose: 100.0 mg/kg/injection, schedule: Q01DX009 (ip), vehicle: saline with Tween-80 104 % of control | dose: 200.0 mg/kg/injection, schedule: Q01DX009 (ip), vehicle: saline with Tween-80 105 % of control

COc1ccc(C2NC(c3ccc(OC)cc3)C3CCCC2C3=O)cc1 (centres undefined)
inactive: [11] 102 % of control | [12] 93 % of control | dose: 400.0 mg/kg/injection, schedule: Q04DX003 (ip), vehicle: saline 98 % of control

ONC1=Nc2ccccc2OCCOc2ccccc2N=C1NO
inactive: dose: 50.0 mg/kg/injection, schedule: Q01DX005 (ip), vehicle: Klucel (hydroxypropylcellulose) (HPC) 100 % of control | dose: 100.0 mg/kg/injection, schedule: Q01DX005 (ip), vehicle: Klucel (hydroxypropylcellulose) (HPC) 100 % of control | dose: 200.0 mg/kg/injection, schedule: Q01DX005 (ip), vehicle: Klucel (hydroxypropylcellulose) (HPC) 96 % of control

O=C(Nc1cccc(Cl)c1)Oc1cccnc1
inactive: [8] 99 % of control | [9] 88 % of control | [10] 89 % of control

c1ccc2c(c1)[nH]c1c2c[n+]2c3c(cccc13)CCC2
inactive: dose: 8.33 mg/kg/injection, schedule: Q01DX009 (ip), vehicle: saline 115 % of control | dose: 18.7 mg/kg/injection, schedule: Q01DX009 (ip), vehicle: saline 95 % of control

[CH3][Sn]([CH3])([Cl])[CH2]CC[CH2][Ge]([Cl])([Cl])[Cl]
inactive: dose: 0.78 mg/kg/injection, schedule: Q01DX009 (ip), vehicle: saline 114 % of control | dose: 1.56 mg/kg/injection, schedule: Q01DX009 (ip), vehicle: saline 119 % of control

CN1Cc2c(c3c(n2C)CCCC3=O)C(O)C1 (centres undefined)
inactive: dose: 50.0 mg/kg/injection, schedule: Q04DX002 (ip), vehicle: saline 106 % of control | dose: 100.0 mg/kg/injection, schedule: Q04DX002 (ip), vehicle: saline 100 % of control | dose: 200.0 mg/kg/injection, schedule: Q04DX002 (ip), vehicle: saline 102 % of control

CC(=O)C1C(C)C(C(C)=O)N2C1SC1CCOC12C (centres undefined)
inactive: dose: 10.0 mg/kg/injection, schedule: Q01DX001 (ip), vehicle: suspension in saline 106 % of control | dose: 20.0 mg/kg/injection, schedule: Q01DX001 (ip), vehicle: suspension in saline 105 % of control | dose: 40.0 mg/kg/injection, schedule: Q01DX001 (ip), vehicle: suspension in saline 101 % of control | dose: 80.0 mg/kg/injection, schedule: Q01DX001 (ip), vehicle: suspension in saline 102 % of control

O/N=C/c1ccc(Cl)cc1Cl
inactive: [7] 98 % of control | [13] 107 % of control | [14] 92 % of control | [15] 96 % of control

O=C1CSC(c2ccccc2O)N1c1ccc(N2C(=O)CSC2c2ccccc2O)cc1 (centres undefined)
inactive: dose: 100.0 mg/kg/injection, schedule: Q01DX001 (ip), vehicle: saline with Tween-80 90 % of control | dose: 200.0 mg/kg/injection, schedule: Q01DX001 (ip), vehicle: saline with Tween-80 87 % of control | dose: 400.0 mg/kg/injection, schedule: Q01DX001 (ip), vehicle: saline with Tween-80 87 % of control

O=S(=O)(c1ccc(F)cc1)N(CCCCCN(S(=O)(=O)c1ccc(F)cc1)S(=O)(=O)c1ccc(F)cc1)S(=O)(=O)c1ccc(F)cc1
inactive: [8] 97 % of control | [9] 91 % of control | [10] 90 % of control

CC(=O)N(CC1CNc2nc(N)[nH]c(=O)c2N1)c1ccc(C(=O)NC(CCC(=O)O)C(=O)O)cc1 (centres undefined)
inactive: dose: 50.0 mg/kg/injection, schedule: Q04DX003 (ip), vehicle: saline 98 % of control | [11] 102 % of control | [12] 95 % of control

CC(=O)Nc1ccc([Se](N)=O)cc1 (centres undefined)
inactive: [13] 89 % of control | [14] 103 % of control | [15] 111 % of control

O=C(N/N=C/c1ccccn1)c1ccccc1
inactive: [1] 102 % of control | [2] 97 % of control | [3] 100 % of control

[Se]=P(c1ccccc1)(N1CCOCC1)N1CCOCC1
inactive: dose: 13.75 mg/kg/injection, schedule: Q01DX001 (ip), vehicle: Klucel (hydroxypropylcellulose) (HPC) 96 % of control | dose: 27.5 mg/kg/injection, schedule: Q01DX001 (ip), vehicle: Klucel (hydroxypropylcellulose) (HPC) 112 % of control

COc1ccc(C(=O)[Se][Se]C(=O)c2ccc(OC)cc2)cc1
inactive: dose: 6.25 mg/kg/injection, schedule: Q01DX009 (ip), vehicle: saline with Tween-80 100 % of control | dose: 12.5 mg/kg/injection, schedule: Q01DX009 (ip), vehicle: saline with Tween-80 102 % of control

CS1(C)=Nc2c([N+](=O)[O-])cc([N+](=O)[O-])cc2S(=O)(=O)N=1
inactive: [8] 98 % of control | [9] 94 % of control | [10] 94 % of control
